Source: publication PMC11763264, “Antibacterial and Antifungal Activities of Linear and Cyclic Peptides Containing Arginine, Tryptophan, and Diphenylalanine” (Antibiotics, 2025)
In brackets after ≈: the same amount, converted by molar mass. Non-standard residues stand in square brackets, D forms with d. Residues, ends and D or L forms follow the SMILES beside them. Dip = N[C@H](C(=O)O)C(c1ccccc1)c1ccccc1

What was measured:
Experiment in all cases: microbe, parasite or virus in culture
S. aureus (ATCC 29213) = assay type: cell-based, Staphylococcus aureus; conditions: ATCC 29213, 24 h
Experimental: (§1) The antibacterial activity of all ten synthesized linear and cyclic peptides was evaluated against MRSA (ATCC BAA-1556), S. aureus (ATCC 29213), E. faecium (ATCC 700221), S. pneumoniae (ATCC 51938), E. faecalis (ATCC 29212), B. subtilis (ATCC-6633), K. pneumoniae (ATCC BAA-1705), P. aeruginosa (ATCC 27883), and E. coli (ATCC 25922). Meropenem and daptomycin were used as positive controls for this study. Certain peptides are marked as “NT” (not tested) against specific bacterial strains based on initial screening data. […] The MIC was determined by micro-broth dilution protocol, where the minimal concentrations were determined to be in wells with no visible bacterial growth.
(§2) All bacterial experiments were carried out in a laminar flow hood (Labconco, Kansas City, MO, USA). The bacterial strains were cultured following the guidelines set by the Clinical Laboratory Standards Institute (CLSI). Antibacterial assays were performed using a standard microtiter dilution method as described in previous studies. The minimum inhibitory concentration (MIC) refers to the lowest peptide concentration that inhibits bacterial growth in wells with no visible bacterial growth. MIC was determined by micro-broth dilution. Bacteria were cultured overnight in 6 mL of Luria Broth (LB). A stock solution of the peptide was prepared in water and DMSO, and a test compound solution with a concentration of 256 µg/mL was made in LB. Meropenem, with a solubility of 8 mg/mL, was prepared as a stock solution at 4 mg/500 µL. An aliquot of the overnight bacteria culture was diluted in normal saline (NS, 1 mL) until achieving a 0.5 McFarland turbidity (1.5 × 10^8 bacterial cell CFU/mL). A 0.5 McFarland compared solution (60 µL) was added to Mueller Hinton Broth (MH) 8940 µL to generate a 1/150 dilution. A 200 µL test compound solution was added to the first well of a 96-well plate, and the remaining wells (2–12) were filled with 100 µL of MH media using a multi-channel pipette from a sterile reservoir. A concentration of […] of the tested peptides was prepared from a stock solution of the samples for testing in Muller−Hinton broth MH media. Peptides stock solution was dissolved in 5% DMSO in water, and the final concentration of DMSO in the first well of assay plate was 2.5% DMSO/H2O and diluted across the assay plate.
(§3) A 100 µL sample from well 1 was pipetted into well 2, and the solution was mixed thoroughly by pipetting up and down. Next, 100 µL was transferred from well 2 to well 3, followed by thorough mixing. This 2-fold serial dilution process continued through well 11, with no additions made to well 12. The final 100 µL from well 11 was discarded. After completing the serial dilution, each well (1–12) contained 100 µL of solution. The bacterial culture in MH media was vortexed and transferred to a sterile reservoir, from which 100 µL was added to each well using a 12-channel pipette. (Note: The dilutions were further diluted upon adding the bacterial solution; for example, the concentration in well 1 started at […] after the addition of the bacterial culture.) The plates were incubated overnight at 37 °C for 24 h. All experiments were performed in triplicate and repeated twice, with controls consisting of bacteria in MH media and positive controls of daptomycin or meropenem.

B. subtilis (ATCC-6633) = assay type: cell-based, Bacillus subtilis; conditions: ATCC-6633, 24 h
Experimental: as §1, §2, §3

C. albicans (ATCC 60193) = assay type: cell-based, Candida albicans; conditions: ATCC 60193, 24 h
Experimental: (§4) The antifungal activity of all ten synthesized linear and cyclic peptides was evaluated against C. albicans (ATCC 60193), C. parapsilosis (ATCC 22019), and A. fumigatus (AF-293). Fluconazole and amphotericin B were used as positive controls for this study. The MIC was determined at concentrations in wells with no visible fungal growth.
(§5) In this study, C. albicans and C. parapsilosis were cultured on Yeast Peptone Dextrose (YPD) agar containing 1% w/v yeast extract, 2% w/v peptone, 2% w/v D-glucose, and 1.5% agar. A single colony from the agar was selected and cultured in Tryptone soy broth supplemented with 0.1% D-glucose, then incubated for 24 h at 37 °C. The cells were washed twice with PBS by centrifugation at 2000 RPM for 5 min. The pellet was resuspended in 5 mL of PBS, diluted in RPMI 1640 with L-glutamine, supplemented with 2% D-glucose, and the pH adjusted using HEPES buffer. The suspension was then incubated for 50 min at 35 °C to achieve a final cell concentration of 10^6 cells/mL.
(§6) Peptide concentrations of 50, 25, 12.5, 6.25, and 3.1 μg/mL were tested in triplicate and repeated twice. Each well of a 96-well plate was inoculated with the prepared inoculum suspension, which was diluted with RPMI media to a final volume of 200 μL per well. The control well received the same inoculum without any compound. The plates were incubated for 24 h at 37 °C. Fungal and microbial growth were visually observed in the control wells, and the minimum inhibitory concentration (MIC) was determined as the lowest concentration at which no growth was detected in the wells. Amphotericin B was used as a standard antifungal drug.

[1] = tested on: S. pneumoniae (ATCC 51938); assay type: cell-based, Streptococcus pneumoniae; conditions: ATCC 51938, 24 h
Experimental: as §1, §2, §3

E. coli (ATCC 25922) = assay type: cell-based, Escherichia coli; conditions: ATCC 25922, 24 h
Experimental: as §1, §2, §3

E. faecalis (ATCC 29212) = assay type: cell-based, Enterococcus faecalis; conditions: ATCC 29212, 24 h
Experimental: as §1, §2, §3

[2] = tested on: C. parapsilosis (ATCC 22019); assay type: cell-based, Candida parapsilosis; conditions: ATCC 22019, 24 h
Experimental: as §4, §5, §6

MRSA (ATCC BAA-1556) = assay type: cell-based, Methicillin-Resistant Staphylococcus aureus; conditions: ATCC BAA-1556, 24 h
Experimental: as §1, §2, §3

[3] = tested on: K. pneumoniae (ATCC BAA-1705); assay type: cell-based, Klebsiella pneumoniae; conditions: ATCC BAA-1705, 24 h
Experimental: as §1, §2, §3

[4] = tested on: P. aeruginosa (ATCC 27883); assay type: cell-based, Pseudomonas aeruginosa; conditions: ATCC 27883, 24 h
Experimental: as §1, §2, §3

E. faecium (ATCC 700221) = assay type: cell-based, Enterococcus faecium; conditions: ATCC 700221, 24 h
Experimental: as §1, §2, §3

Row | MIC (S. aureus (ATCC 29213)) | MIC (B. subtilis (ATCC-6633)) | MIC (C. albicans (ATCC 60193)) | MIC [1] | MIC (E. coli (ATCC 25922)) | MIC (E. faecalis (ATCC 29212)) | MIC [2] | MIC (MRSA (ATCC BAA-1556)) | MIC [3] | MIC [4] | MIC (E. faecium (ATCC 700221)) | SMILES
1 | 3.1 µM (≈ 5.59 µg/mL) | 1.6 µM (≈ 2.89 µg/mL) | 3.5 µM (≈ 6.31 µg/mL) | 0.78 µM (≈ 1.41 µg/mL) | 6.3 µM (≈ 11.4 µg/mL) | 6.3 µM (≈ 11.4 µg/mL) | 6.9 µM (≈ 12.4 µg/mL) | 3.1 µM (≈ 5.59 µg/mL) | 12.5 µM (≈ 22.6 µg/mL) | 12.5 µM (≈ 22.6 µg/mL) | 3.1 µM (≈ 5.59 µg/mL) | N=C(N)NCCC[C@H](NC(=O)[C@@H](NC(=O)[C@H](CCCNC(=N)N)NC(=O)[C@@H](NC(=O)[C@H](CCCNC(=N)N)NC(=O)[C@H](Cc1c[nH]c2ccccc12)NC(=O)[C@H](CCCNC(=N)N)NC(=O)[C@H](Cc1c[nH]c2ccccc12)NC(=O)[C@H](CCCNC(=N)N)NC(=O)[C@@H](N)Cc1c[nH]c2ccccc12)C(c1ccccc1)c1ccccc1)C(c1ccccc1)c1ccccc1)C(=O)O [((DipR)2(WR)3)] (H-WRWRWR[Dip]R[Dip]R-OH)
2 | 3.1 µM (≈ 5.71 µg/mL) | 3.1 µM (≈ 5.71 µg/mL) | 3.4 µM (≈ 6.26 µg/mL) | 0.78 µM (≈ 1.44 µg/mL) | 12.5 µM (≈ 23 µg/mL) | 3.1 µM (≈ 5.71 µg/mL) | 6.8 µM (≈ 12.5 µg/mL) | 3.1 µM (≈ 5.71 µg/mL) | 25 µM (≈ 46 µg/mL) | 25 µM (≈ 46 µg/mL) | 3.1 µM (≈ 5.71 µg/mL) | N=C(N)NCCC[C@H](NC(=O)[C@@H](NC(=O)[C@H](CCCNC(=N)N)NC(=O)[C@@H](NC(=O)[C@H](CCCNC(=N)N)NC(=O)[C@@H](NC(=O)[C@H](CCCNC(=N)N)NC(=O)[C@H](Cc1c[nH]c2ccccc12)NC(=O)[C@H](CCCNC(=N)N)NC(=O)[C@@H](N)Cc1c[nH]c2ccccc12)C(c1ccccc1)c1ccccc1)C(c1ccccc1)c1ccccc1)C(c1ccccc1)c1ccccc1)C(=O)O [((DipR)3(WR)2)] (H-WRWR[Dip]R[Dip]R[Dip]R-OH)
3 | 3.1 µM (≈ 5.82 µg/mL) | 12.5 µM (≈ 23.5 µg/mL) | 6.6 µM (≈ 12.4 µg/mL) | 0.78 µM (≈ 1.47 µg/mL) | 12.5 µM (≈ 23.5 µg/mL) | 1.6 µM (≈ 3.01 µg/mL) | 6.6 µM (≈ 12.4 µg/mL) | 3.1 µM (≈ 5.82 µg/mL) | 25 µM (≈ 47 µg/mL) | 25 µM (≈ 47 µg/mL) | 1.6 µM (≈ 3.01 µg/mL) | N=C(N)NCCC[C@H](NC(=O)[C@@H](NC(=O)[C@H](CCCNC(=N)N)NC(=O)[C@@H](NC(=O)[C@H](CCCNC(=N)N)NC(=O)[C@@H](NC(=O)[C@H](CCCNC(=N)N)NC(=O)[C@@H](NC(=O)[C@H](CCCNC(=N)N)NC(=O)[C@@H](N)Cc1c[nH]c2ccccc12)C(c1ccccc1)c1ccccc1)C(c1ccccc1)c1ccccc1)C(c1ccccc1)c1ccccc1)C(c1ccccc1)c1ccccc1)C(=O)O [((DipR)4(WR))] (H-WR[Dip]R[Dip]R[Dip]R[Dip]R-OH)
